From ChEMBL document CHEMBL3885881, “DrugMatrix”

Organism: Rattus norvegicus
Test: DrugMatrix - Regimen: Daily Repeat
Assay type: toxicity, organism-based, Sprague-Dawley
Design: regimen Daily Repeat, gender Male, age 6-8 weeks
Details: in vivo, po, route oral GAVAGE, vehicle .5 % CMC; for ABSOLUTE BASOPHIL / ABSOLUTE EOSINOPHIL / ABSOLUTE LYMPHOCYTE / ABSOLUTE MONOCYTE / ABSOLUTE SEGMENTED NEUTROPHIL / BASOPHIL / EOSINOPHIL / ERYTHROCYTE COUNT / HEMATOCRIT / HEMOGLOBIN / LEUKOCYTE COUNT / LYMPHOCYTE / MEAN CORPUSCULAR HEMOGLOBIN / MEAN CORPUSCULAR HEMOGLOBIN CONCENTRATION / MEAN CORPUSCULAR VOLUME / MONOCYTE / NEUTROPHIL / NUCLEATED RED BLOOD CELLS / PLATELET COUNT: tissue Blood; for ALANINE AMINOTRANSFERASE / ALBUMIN / ALKALINE PHOSPHATASE / ASPARTATE AMINOTRANSFERASE / BLOOD UREA NITROGEN / CARBON DIOXIDE / CHLORIDE / CHOLESTEROL / CREATINE PHOSPHOKINASE / CREATININE / GLUCOSE / LACTATE DEHYDROGENASE / LIPASE / PHOSPHORUS / POTASSIUM / SODIUM / TOTAL BILIRUBIN / TOTAL PROTEIN / URIC ACID: tissue Plasma
[1] = 88 mg/kg, 72 h, dose level Low, time 3 day
[2] = 88 mg/kg, 120 h, dose level Low, time 5 day
[3] = 1500 mg/kg, 72 h, dose level High, time 3 day
[4] = 1500 mg/kg, 120 h, dose level High, time 5 day

NC(=O)c1cnccn1 [PYRAZINAMIDE]
ABSOLUTE BASOPHIL [1]: 0 CELLS/uL | ABSOLUTE EOSINOPHIL [1]: 30.67 CELLS/uL | ABSOLUTE LYMPHOCYTE [1]: 12250.33 CELLS/uL | ABSOLUTE MONOCYTE [1]: 470.67 CELLS/uL | ABSOLUTE SEGMENTED NEUTROPHIL [1]: 1315 CELLS/uL | BASOPHIL [1]: 0% | EOSINOPHIL [1]: 0.33% | ERYTHROCYTE COUNT [1]: 5.55 x10E6/uL | HEMATOCRIT [1]: 35.93% | HEMOGLOBIN [1]: 13.4 G/DL | LEUKOCYTE COUNT [1]: 14.07 x10E3/uL | LYMPHOCYTE [1]: 87% | MEAN CORPUSCULAR HEMOGLOBIN [1]: 24.2 pg | MEAN CORPUSCULAR HEMOGLOBIN CONCENTRATION [1]: 37.27 G/DL | MEAN CORPUSCULAR VOLUME [1]: 64.83 fL | MONOCYTE [1]: 3% | NEUTROPHIL [1]: 9.67% | NUCLEATED RED BLOOD CELLS [1]: 0 /100WBC | PLATELET COUNT [1]: 1204.33 x10E3/uL | ALANINE AMINOTRANSFERASE [1]: 44.33 u/L | ALBUMIN [1]: 4.73 G/DL | ALKALINE PHOSPHATASE [1]: 375 u/L | ASPARTATE AMINOTRANSFERASE [1]: 85.33 u/L | BLOOD UREA NITROGEN [1]: 14.67 mg/dL | CARBON DIOXIDE [1]: 22.67 mmol/L | CHLORIDE [1]: 102.67 MEQ/L | CHOLESTEROL [1]: 74.33 mg/dL | CREATINE PHOSPHOKINASE [1]: 282.33 u/L | CREATININE [1]: 0.22 mg/dL | GLUCOSE [1]: 147 mg/dL | LACTATE DEHYDROGENASE [1]: 427 u/L | LIPASE [1]: 10 u/L | PHOSPHORUS [1]: 12.4 mg/dL | POTASSIUM [1]: 7.05 MEQ/L | SODIUM [1]: 145.67 MEQ/L | TOTAL BILIRUBIN [1]: 0.27 mg/dL | TOTAL PROTEIN [1]: 5.97 G/DL | URIC ACID [1]: 2.43 mg/dL | ABSOLUTE BASOPHIL [2]: 0 CELLS/uL | ABSOLUTE EOSINOPHIL [2]: 154 CELLS/uL | ABSOLUTE LYMPHOCYTE [2]: 11236 CELLS/uL | ABSOLUTE MONOCYTE [2]: 491 CELLS/uL | ABSOLUTE SEGMENTED NEUTROPHIL [2]: 1385.67 CELLS/uL | BASOPHIL [2]: 0% | EOSINOPHIL [2]: 1% | ERYTHROCYTE COUNT [2]: 5.75 x10E6/uL | HEMATOCRIT [2]: 35.9% | HEMOGLOBIN [2]: 13.43 G/DL | LEUKOCYTE COUNT [2]: 13.27 x10E3/uL | LYMPHOCYTE [2]: 85% | MEAN CORPUSCULAR HEMOGLOBIN [2]: 23.4 pg | MEAN CORPUSCULAR HEMOGLOBIN CONCENTRATION [2]: 37.47 G/DL | MEAN CORPUSCULAR VOLUME [2]: 62.43 fL | MONOCYTE [2]: 3.67% | NEUTROPHIL [2]: 10.33% | NUCLEATED RED BLOOD CELLS [2]: 0.33 /100WBC | PLATELET COUNT [2]: 1159.33 x10E3/uL | ALANINE AMINOTRANSFERASE [2]: 36 u/L | ALBUMIN [2]: 4.27 G/DL | ALKALINE PHOSPHATASE [2]: 325.33 u/L | ASPARTATE AMINOTRANSFERASE [2]: 95.33 u/L | BLOOD UREA NITROGEN [2]: 20 mg/dL | CARBON DIOXIDE [2]: 24 mmol/L | CHLORIDE [2]: 108.33 MEQ/L | CHOLESTEROL [2]: 66 mg/dL | CREATINE PHOSPHOKINASE [2]: 516 u/L | CREATININE [2]: 0.22 mg/dL | GLUCOSE [2]: 133.67 mg/dL | LACTATE DEHYDROGENASE [2]: 846.33 u/L | LIPASE [2]: 9 u/L | PHOSPHORUS [2]: 11.63 mg/dL | POTASSIUM [2]: 5.99 MEQ/L | SODIUM [2]: 145.83 MEQ/L | TOTAL BILIRUBIN [2]: 0.13 mg/dL | TOTAL PROTEIN [2]: 6.07 G/DL | URIC ACID [2]: 1.4 mg/dL | ABSOLUTE BASOPHIL [3]: 0 CELLS/uL | ABSOLUTE EOSINOPHIL [3]: 133 CELLS/uL | ABSOLUTE LYMPHOCYTE [3]: 8872.33 CELLS/uL | ABSOLUTE MONOCYTE [3]: 166.33 CELLS/uL | ABSOLUTE SEGMENTED NEUTROPHIL [3]: 1061.67 CELLS/uL | BASOPHIL [3]: 0% | EOSINOPHIL [3]: 1.33% | ERYTHROCYTE COUNT [3]: 5.4 x10E6/uL | HEMATOCRIT [3]: 35.87% | HEMOGLOBIN [3]: 13.37 G/DL | LEUKOCYTE COUNT [3]: 10.23 x10E3/uL | LYMPHOCYTE [3]: 86.67% | MEAN CORPUSCULAR HEMOGLOBIN [3]: 24.8 pg | MEAN CORPUSCULAR HEMOGLOBIN CONCENTRATION [3]: 37.33 G/DL | MEAN CORPUSCULAR VOLUME [3]: 66.4 fL | MONOCYTE [3]: 1.67% | NEUTROPHIL [3]: 10.33% | NUCLEATED RED BLOOD CELLS [3]: 0 /100WBC | PLATELET COUNT [3]: 1418.67 x10E3/uL | ALANINE AMINOTRANSFERASE [3]: 48.33 u/L | ALBUMIN [3]: 4.13 G/DL | ALKALINE PHOSPHATASE [3]: 315.67 u/L | ASPARTATE AMINOTRANSFERASE [3]: 85.67 u/L | BLOOD UREA NITROGEN [3]: 16.67 mg/dL | CARBON DIOXIDE [3]: 28 mmol/L | CHLORIDE [3]: 103.33 MEQ/L | CHOLESTEROL [3]: 73 mg/dL | CREATINE PHOSPHOKINASE [3]: 136.33 u/L | CREATININE [3]: 0.15 mg/dL | GLUCOSE [3]: 153 mg/dL | LACTATE DEHYDROGENASE [3]: 76 u/L | LIPASE [3]: 9 u/L | PHOSPHORUS [3]: 10.47 mg/dL | POTASSIUM [3]: 5.73 MEQ/L | SODIUM [3]: 146 MEQ/L | TOTAL BILIRUBIN [3]: 0.23 mg/dL | TOTAL PROTEIN [3]: 5.77 G/DL | URIC ACID [3]: 1.47 mg/dL | ABSOLUTE BASOPHIL [4]: 0 CELLS/uL | ABSOLUTE EOSINOPHIL [4]: 88 CELLS/uL | ABSOLUTE LYMPHOCYTE [4]: 11940 CELLS/uL | ABSOLUTE MONOCYTE [4]: 519 CELLS/uL | ABSOLUTE SEGMENTED NEUTROPHIL [4]: 1353 CELLS/uL | BASOPHIL [4]: 0% | EOSINOPHIL [4]: 0.67% | ERYTHROCYTE COUNT [4]: 6.59 x10E6/uL | HEMATOCRIT [4]: 40.1% | HEMOGLOBIN [4]: 14.83 G/DL | LEUKOCYTE COUNT [4]: 13.9 x10E3/uL | LYMPHOCYTE [4]: 86% | MEAN CORPUSCULAR HEMOGLOBIN [4]: 22.5 pg | MEAN CORPUSCULAR HEMOGLOBIN CONCENTRATION [4]: 37.03 G/DL | MEAN CORPUSCULAR VOLUME [4]: 60.83 fL | MONOCYTE [4]: 3.67% | NEUTROPHIL [4]: 9.67% | NUCLEATED RED BLOOD CELLS [4]: 0 /100WBC | PLATELET COUNT [4]: 1142.67 x10E3/uL | ALANINE AMINOTRANSFERASE [4]: 56.33 u/L | ALBUMIN [4]: 4.53 G/DL | ALKALINE PHOSPHATASE [4]: 308 u/L | ASPARTATE AMINOTRANSFERASE [4]: 93.33 u/L | BLOOD UREA NITROGEN [4]: 16.67 mg/dL | CARBON DIOXIDE [4]: 25.33 mmol/L | CHLORIDE [4]: 104.5 MEQ/L | CHOLESTEROL [4]: 70.67 mg/dL | CREATINE PHOSPHOKINASE [4]: 254.33 u/L | CREATININE [4]: 0.17 mg/dL | GLUCOSE [4]: 185.67 mg/dL | LACTATE DEHYDROGENASE [4]: 177.33 u/L | LIPASE [4]: 9 u/L | PHOSPHORUS [4]: 12.47 mg/dL | POTASSIUM [4]: 5.72 MEQ/L | SODIUM [4]: 147.8 MEQ/L | TOTAL BILIRUBIN [4]: 0.2 mg/dL | TOTAL PROTEIN [4]: 6.07 G/DL | URIC ACID [4]: 1.37 mg/dL
